{"source": "patent US9241484B2", "about": "“Compositions of dibromomalonamide and their use as biocides” (Dow Global Technologies LLC, priority 2011, dated 2016)", "data": [{"tested_on": "mixture of Pseudomonas aeruginosa, Klebsiella pneumoniae, Staphylococcus aureus, and Bacillus subtilis", "assay": "Growth inhibition assay (microtiter plate-based synergy assay)", "conditions": "active used alone; dilute mineral salts medium pH 7.5; 37° C., 24 hr; OD580", "units": {"I90 value (minimum concentration to result in at least 90% inhibition of growth)": "mg/L"}, "excerpt": "Growth Inhibition Assay. […] Regardless of the mechanism of action, the impact of a biocide (or combination of biocides) can be measured over time on the basis of an increase in the size of the community.\nThe assay measures the efficacy of one or more biocides at preventing growth of a consortium of bacteria in a dilute mineral salts medium. The medium contains (in mg/l) the following components: FeCl3.6H2O (1); CaCl2.2H2O (10); MgSO4.7H2O (22.5); (NH4)2SO4 (40); KH2PO4 (10); K2HPO4 (25.5); Yeast Extract (10); and glucose (100). After all components are added to deionized water, the pH of the medium is adjusted to 7.5. Following filter sterilization, aliquots are dispensed in 100 μl quantities to sterile microtiter plate wells. Dilutions of 2,2-dibromomalonamide (“DBMAL”) and/or “Biocide B” are then added to the microtiter plate. After preparing the combinations of actives as illustrated below, each well is inoculated with 100 μl of a cell suspension containing ca. 1×10^6 cells per milliliter of a mixture of Pseudomonas aeruginosa, Klebsiella pneumoniae, Staphylococcus aureus, and Bacillus subtilis. The final total volume of medium in each well is 300 μl. Once prepared as described herein, the concentration of each active ranges from 25 ppm to 0.195 ppm as illustrated in Table 1. The resulting matrix allows testing of eight concentrations of each active and 64 combinations of actives in the ratios (of actives).\nImmediately after the microtiter plates are prepared, the optical density (OD) readings for each well is measured at 580 nm and the plates are then incubated at 37° C. for 24 hr. After the incubation period, the plates are gently agitated before OD580 values are collected. The OD580 values at T0 are subtracted from T24 values to determine the total amount of growth (or lack thereof) that occurs. These values are used to calculate the percent inhibition of growth caused by the presence of each biocide and each of the 64 combinations. A 90% inhibition of growth is used as a threshold for calculating synergy index (SI) values with the following equation: Synergy Index=MDBMAL/CDBMAL+MB/CB\nwhere • CDBMAL: Concentration of DBMAL required to inhibit ≧90% of bacterial growth when used alone • CB: Concentration of biocide (B) required to inhibit ≧90% of bacterial growth when used alone. • MDBMAL: Concentration of DBMAL required to inhibit ≧90% of bacterial growth when used in combination with biocide (B). • MB: Concentration of biocide (B) required to inhibit ≧90% of bacterial growth when used in combination with DBMAL The SI values are interpreted as follows: • SI<1: Synergistic combination • SI=1: Additive combination • SI>1: Antagonistic combination\nIn the Examples below, the amounts of biocides in the solution are measured in mg per liter of solution (mg/l). Since solution densities are approximately 1.00, the mg/l measurement corresponds to weight and can be expressed as parts per million (ppm). Both units may therefore be used interchangeably in the Examples.", "values": [{"compound": "OBr", "note": "[HOBr, hypobromous acid]", "I90 value (minimum concentration to result in at least 90% inhibition of growth)": 12.5}, {"compound": "NC(=O)C(Br)(Br)C(N)=O", "note": "[DBMAL, 2,2-dibromomalonamide]", "I90 value (minimum concentration to result in at least 90% inhibition of growth)": 6.25}, {"compound": "CC1(C)C(=O)N(Cl)C(=O)N1Cl", "note": "[DCDMH, dichlorodimethylhydantoin]", "I90 value (minimum concentration to result in at least 90% inhibition of growth)": 0.78}, {"compound": "monochlorodimethylhydantoin [MCDMH]", "I90 value (minimum concentration to result in at least 90% inhibition of growth)": 3.13}, {"compound": "CC1(C)C(=O)N(Br)C(=O)N1Br", "note": "[DBDMH, dibromodimethylhydantoin]", "I90 value (minimum concentration to result in at least 90% inhibition of growth)": 3.13}, {"compound": "OCl", "note": "[HOCl, hypochlorous acid]", "I90 value (minimum concentration to result in at least 90% inhibition of growth)": 0.78}]}]}
